Measurements reported in PubChem BioAssay AID256 (DTP/NCI, 2004).
Where “and” joins values, the source holds several entries; their conditions need not be identical. Identical values can stand only once. Inconclusive results and toxic doses are left out. Rule for the calls: active = survival T/C of 150% or more; inactive = T/C below 125% in these data. Residues, ends and D or L forms follow the SMILES beside them.

Test system: CD2F1 mice, L1210 leukemia ip, survival T/C
Assay: NCI In Vivo Anticancer Drug Screen. Data for tumor model L1210 Leukemia (intraperitoneal) in CD2F1 (CDF1) mice
Conditions: endpoint: mean survival time, higher = longer survival
Summary of the method: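 Compound-dosed mice with transplantable tumor versus matched vehicle controls; endpoint ratio T/C reported.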

[1] = dose: 5.0 mg/kg/injection, schedule: Q01DX009 (ip), vehicle: saline
[2] = dose: 10.0 mg/kg/injection, schedule: Q01DX009 (ip), vehicle: saline
[3] = dose: 25.0 mg/kg/injection, schedule: Q04DX003 (ip), vehicle: saline with Tween-80
[4] = dose: 50.0 mg/kg/injection, schedule: Q04DX003 (ip), vehicle: saline with Tween-80
[5] = dose: 100.0 mg/kg/injection, schedule: Q04DX003 (ip), vehicle: saline with Tween-80
[6] = dose: 200.0 mg/kg/injection, schedule: Q04DX003 (ip), vehicle: saline with Tween-80
[7] = dose: 400.0 mg/kg/injection, schedule: Q04DX003 (ip), vehicle: saline with Tween-80
[8] = dose: 100.0 mg/kg/injection, schedule: Q01DX001 (ip), vehicle: saline with Tween-80
[9] = dose: 37.5 mg/kg/injection, schedule: Q01DX009 (ip), vehicle: saline
[10] = dose: 100.0 mg/kg/injection, schedule: Q01DX009 (ip), vehicle: saline
[11] = dose: 200.0 mg/kg/injection, schedule: Q01DX009 (ip), vehicle: saline
[12] = dose: 100.0 mg/kg/injection, schedule: Q01DX009 (ip), vehicle: saline with Tween-80
[13] = dose: 200.0 mg/kg/injection, schedule: Q01DX009 (ip), vehicle: saline with Tween-80
[14] = dose: 400.0 mg/kg/injection, schedule: Q01DX009 (ip), vehicle: saline with Tween-80
[15] = dose: 100.0 mg/kg/injection, schedule: Q01DX009 (ip), vehicle: Klucel (hydroxypropylcellulose) (HPC)
[16] = dose: 200.0 mg/kg/injection, schedule: Q01DX009 (ip), vehicle: Klucel (hydroxypropylcellulose) (HPC)

Measured: T/C

CCCCCCCCCCCCCCNCCC(=O)O
inactive: dose: 75.0 mg/kg/injection, schedule: Q01DX001 (ip), vehicle: saline 98 % of control | dose: 150.0 mg/kg/injection, schedule: Q01DX001 (ip), vehicle: saline 106 % of control

[Cu+2].[NH-]CC(=O)O.[NH-]CC(=O)O
inactive: [1] 98 % of control | [2] 104 % of control

COc1ccc2c(ccc[n+]2C)c1
inactive: [1] 106 % of control | dose: 5.0 mg/kg/injection, schedule: Q04DX003 (ip), vehicle: saline 103 % of control | [2] 107 % of control | dose: 10.0 mg/kg/injection, schedule: Q04DX003 (ip), vehicle: saline 101 % of control | dose: 12.5 mg/kg/injection, schedule: Q01DX009 (ip), vehicle: alcohol 107 % of control | dose: 12.5 mg/kg/injection, schedule: Q04DX003 (ip), vehicle: acetone 104 % of control | dose: 20.0 mg/kg/injection, schedule: Q01DX009 (ip), vehicle: saline 106 % of control | dose: 20.0 mg/kg/injection, schedule: Q04DX003 (ip), vehicle: saline 109 % of control | dose: 25.0 mg/kg/injection, schedule: Q01DX009 (ip), vehicle: alcohol 116 % of control | dose: 25.0 mg/kg/injection, schedule: Q04DX003 (ip), vehicle: acetone 106 % of control | dose: 50.0 mg/kg/injection, schedule: Q04DX003 (ip), vehicle: acetone 106 % of control

c1ccc(CCc2ccccn2)nc1
inactive: [3] 105 % of control | [4] 100 % of control | [5] 91 % of control and 103 % of control

CCCCN(CCCC)CC(O)c1cc(-c2c(Cl)cccc2Cl)nc2c(Cl)cc(Cl)cc12 (configuration not stated)
inactive: [5] 86 % of control | [6] 93 % of control | [7] 96 % of control

CC1(C)N=C(N)N=C(N)N1c1ccc(OCCCCNC(=O)Nc2cccc(S(=O)(=O)F)c2)c(Cl)c1
inactive: dose: 25.0 mg/kg/injection, schedule: Q01DX001 (ip), vehicle: saline with Tween-80 105 % of control | dose: 50.0 mg/kg/injection, schedule: Q01DX001 (ip), vehicle: saline with Tween-80 103 % of control | [8] 95 % of control and 97 % of control

COC1C(O)CC(OC2CC(Oc3cc4cc5c(c(O)c4c(O)c3C)C(=O)[C@@H](OC3CC(OC4CC(OC6CC(C)(O)C(OC(C)=O)C(C)O6)C(O)C(C)O4)C(O)C(C)O3)[C@H]([C@H](OC)C(=O)[C@@H](O)[C@@H](C)O)C5)OC(C)C2OC(C)=O)OC1C (some centres not stated)
inactive: dose: 62.5 micrograms/kg/injection, schedule: Q01DX009 (ip), vehicle: saline 120 % of control | dose: 250.0 micrograms/kg/injection, schedule: Q01DX009 (ip), vehicle: saline 92 % of control

CC/C(=N\[N+](C)(C)C)c1ccccc1
inactive: dose: 18.8 mg/kg/injection, schedule: Q01DX009 (ip), vehicle: saline 96 % of control | [9] 91 % of control

CN(C)CCCNCC#CCNCCCN(C)C
inactive: dose: 50.0 mg/kg/injection, schedule: Q01DX009 (ip), vehicle: saline 100 % of control | [10] 98 % of control | dose: 100.0 mg/kg/injection, schedule: Q04DX003 (ip), vehicle: saline 101 % of control | [11] 96 % of control | dose: 200.0 mg/kg/injection, schedule: Q04DX003 (ip), vehicle: saline 95 % of control

CC(=O)C(C)(C)C
inactive: dose: 100.0 mg/kg/injection, schedule: Q04DX002 (ip), vehicle: saline 96 % of control | dose: 200.0 mg/kg/injection, schedule: Q04DX002 (ip), vehicle: saline 104 % of control | dose: 400.0 mg/kg/injection, schedule: Q04DX002 (ip), vehicle: saline 104 % of control

CC(C)C(NC(=O)C(CCCN=C(N)N)NC(=O)C(N)CCCCN)C(N)=O (stereo not drawn) (H-Lys-Arg-Val-NH2; configuration not given here)
inactive: dose: 12.5 mg/kg/injection, schedule: Q01DX009 (ip), vehicle: water 101 % of control | dose: 25.0 mg/kg/injection, schedule: Q01DX009 (ip), vehicle: water 101 % of control | dose: 50.0 mg/kg/injection, schedule: Q01DX009 (ip), vehicle: water 94 % of control | dose: 100.0 mg/kg/injection, schedule: Q01DX009 (ip), vehicle: water 97 % of control | dose: 200.0 mg/kg/injection, schedule: Q01DX009 (ip), vehicle: water 95 % of control

CC(=O)Oc1c(C)ncc(C=O)c1C
inactive: dose: 75.0 mg/kg/injection, schedule: Q01DX001 (ip), vehicle: other 101 % of control | dose: 150.0 mg/kg/injection, schedule: Q01DX001 (ip), vehicle: other 100 % of control

C=C(Cl)CSCCO
inactive: [12] 100 % of control | [13] 104 % of control | [14] 98 % of control

O=C(C[n+]1ccccc1Cc1ccccc1)c1ccccc1
inactive: [3] 93 % of control | [4] 96 % of control | [5] 101 % of control

Nc1nc(N)c2nc(CN(CCc3ccccc3)c3ccc(C(=O)NC(CCC(=O)O)C(=O)O)cc3)cnc2n1 (configuration not stated)
inactive: dose: 20.0 mg/kg/injection, schedule: Q01DX009 (ip), vehicle: sodium bicarbonate 100 % of control | dose: 40.0 mg/kg/injection, schedule: Q01DX009 (ip), vehicle: sodium bicarbonate 105 % of control | dose: 80.0 mg/kg/injection, schedule: Q01DX009 (ip), vehicle: sodium bicarbonate 108 % of control | dose: 100.0 mg/kg/injection, schedule: Q01DX001 (ip), vehicle: sodium bicarbonate 96 % of control | dose: 200.0 mg/kg/injection, schedule: Q01DX001 (ip), vehicle: sodium bicarbonate 98 % of control | dose: 400.0 mg/kg/injection, schedule: Q01DX001 (ip), vehicle: sodium bicarbonate 102 % of control

O=C1OC2CCCCC2c2ccccc21 (configuration not stated)
inactive: [5] 98 % of control | [6] 96 % of control | [7] 98 % of control

CNC(=O)OCc1c(COC(=O)NC)c(-c2ccccc2)n(C)c1-c1ccccc1
inactive: dose: 3.12 mg/kg/injection, schedule: Q01DX009 (ip), vehicle: distilled water + Tween-80 111 % of control | dose: 6.25 mg/kg/injection, schedule: Q01DX009 (ip), vehicle: distilled water + Tween-80 111 % of control | dose: 50.0 mg/kg/injection, schedule: Q01DX009 (ip), vehicle: distilled water + Tween-80 111 % of control

CC12CCC3C4CCC(=O)C=C4CCC3C1CCC2O (configuration not stated)
inactive: dose: 50.0 mg/kg/injection, schedule: Q01DX009 (ip), vehicle: Klucel (hydroxypropylcellulose) (HPC) 101 % of control | [15] 96 % of control | [16] 101 % of control

N#CC(CCC(=O)O)(CCC(=O)O)c1ccccc1
inactive: [12] 96 % of control | [13] 96 % of control | [14] 96 % of control

CC1=CC(C)(N=[N+]=[N-])CC(C)(C)C1 (configuration not stated)
inactive: [9] 97 % of control | dose: 75.0 mg/kg/injection, schedule: Q01DX009 (ip), vehicle: saline 97 % of control

CC(=O)Nc1ccc(/C=N/NC(=O)CNC(=O)Nc2cccc([N+](=O)[O-])c2)cc1
inactive: dose: 12.5 mg/kg/injection, schedule: Q01DX009 (ip), vehicle: saline with Tween-80 87 % of control | dose: 25.0 mg/kg/injection, schedule: Q01DX009 (ip), vehicle: saline with Tween-80 91 % of control | dose: 50.0 mg/kg/injection, schedule: Q01DX009 (ip), vehicle: saline with Tween-80 91 % of control | [12] 88 % of control

c1ccc(CCc2nc(-c3ccccc3)cc(-c3ccccc3)n2)cc1
inactive: [8] 89 % of control | dose: 200.0 mg/kg/injection, schedule: Q01DX001 (ip), vehicle: saline with Tween-80 92 % of control | dose: 400.0 mg/kg/injection, schedule: Q01DX001 (ip), vehicle: saline with Tween-80 87 % of control

CC(=O)OC1CC2CCC1(C)C2(C)C (configuration not stated)
inactive: [5] 101 % of control | [6] 95 % of control

COC(=O)C(N)CSSCC(N)C(=O)OC (configuration not stated)
inactive: dose: 100.0 mg/kg/injection, schedule: Q01DX001 (ip), vehicle: saline 108 % of control | [10] 102 % of control | dose: 200.0 mg/kg/injection, schedule: Q01DX001 (ip), vehicle: saline 97 % of control | [11] 94 % of control | dose: 400.0 mg/kg/injection, schedule: Q01DX001 (ip), vehicle: saline 100 % of control | dose: 400.0 mg/kg/injection, schedule: Q01DX009 (ip), vehicle: saline 94 % of control

O=S(=O)(Cc1ccc(Cl)cc1Cl)Cc1ccc(Cl)cc1Cl
inactive: [15] 98 % of control | [16] 91 % of control | dose: 400.0 mg/kg/injection, schedule: Q01DX009 (ip), vehicle: Klucel (hydroxypropylcellulose) (HPC) 92 % of control
